Test results published in patent publication US4786755A, “Diphenic acid monoamides” (Warner-Lambert Company, priority 1986, dated 1988).

Molecular target: T1, leukotriene receptor (Cavia porcellus, UniProt Q2NNR5)
T1 construct: 20 mg original tissue wet weight of guinea pig lung membranes; tissue Kuiper Rabbit Farm, Gary, IN (animals); host or cells: guinea pig lung, crude membranes
T1 sequence (Q2NNR5 1-340): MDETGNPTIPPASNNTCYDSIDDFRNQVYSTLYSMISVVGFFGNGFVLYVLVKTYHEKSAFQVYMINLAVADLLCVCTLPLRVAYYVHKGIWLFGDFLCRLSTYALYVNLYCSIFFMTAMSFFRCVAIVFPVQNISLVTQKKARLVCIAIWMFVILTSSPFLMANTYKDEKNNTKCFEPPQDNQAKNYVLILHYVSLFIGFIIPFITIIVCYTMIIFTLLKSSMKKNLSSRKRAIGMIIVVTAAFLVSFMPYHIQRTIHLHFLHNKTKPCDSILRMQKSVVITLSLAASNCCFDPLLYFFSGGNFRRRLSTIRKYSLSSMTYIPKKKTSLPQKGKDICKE
Assay: Binding of ^3 H-Leukotriene D4 to Guinea Pig Lung Membranes (RBL)
Details: ^3 H-LTD4, guinea pig lung membranes; read-out: IC50 RBL1
Experimental: Additionally, the activity, of the compounds having the Formula I of the present invention is determined by the well known leukotriene receptor binding assay that is described by R. F. Bruns, W. J. Thomsen and T. A. Pugsley in Life Sciences, 33, 645 (1983) or the Herxheimer in vivo antiallergy test described in H. Herxheimer, J. Physiol. (London), Vol. 177, p. 251 (1952).
Binding of ^3 H-Leukotriene D4 to Guinea Pig Lung Membranes (RBL)
[14,15-^3 H]leukotriene D4 (^3 H-LTD4) (25 Ci/mmol and 40 Ci/mmol) is purchased from New England Nuclear. Unlabeled LTC4 is a gift of Ono Pharmaceuticals (Japan). LTC4, LTD4, and LTE4 are purchased as methyl esters from Paesel GmbH (Frankfurt, W. Germany). Concentrations of the Paesel leukotrienes are calculated from their absorbance at 280 nm. Leukotriene esters are saponified overnight under N2 in 3.3% potassium carbonate at room temperature. Tritiated leukotrienes are stored as received from New England Nuclear at -20° C. Ono LTC4 (5 μg/ml is stored at -60° C. in phosphate buffer pH 6.8. Saponified Paesel leukotrienes are stored at -60° C. in 3.3% potassium carbonate (pH 9.0-9.5). Aliquots of leukotrienes are taken from stock solutions immediately after thawing, after which the stock solutions are immediately refrozen. 2-Amino-2-(hydroxymethyl)-1,3-propanediol (Tris) is Sigma pH 7.7 pre-set crystals, and dimethylsulfoxide is Aldrich Gold Label.
Preparation of crude lung membranes
Two pairs of lungs (1.3 g) from freshly sacrificed 300 g male guinea pigs (older animals gave substantially lower binding) from Kuiper Rabbit Farm, Gary, IN are disrupted with a Polytron PT 10 (setting 4) for 30 seconds in 20 ml ice-cold 50 mM Tris adjusted with HCl to pH 7.7 at 25° C. (Tris buffer), filtered through a single layer of gauze to remove connective tissue, and centrifuged at 50,000 xg for ten min. The pellet is resuspended by homogenization with a Polytron in 20 ml Tris buffer, centrifuged at 50,000 xg for ten min., resuspended, incubated at 37° C. for 30 minutes, and centrifuged again. The final pellet is resuspended in Tris buffer and either used fresh or stored at -70° C.
All incubations are in triplicate for 60 minutes at 25° C. in 12×75 mm polystyrene tubes containing 1 ml Tris buffer with 20 mg original tissue wet weight of guinea pig lung membranes, 0.2 nM ^3 H-LTD4 (6,000-11,000 cpm), 10 mM MgCl2, and 1% dimethylsulfoxide. Leukotrienes are diluted in Tris buffer. All other test compounds are dissolved at 10 mM in dimethylsulfoxide on the same day as the experiment, and diluted in dimethylsulfoxide to 100× the final incubation concentration. Control incubations receive an equal volume (10 μl) of dimethylsulfoxide; the resulting concentration of dimethylsulfoxide had no effect on binding. ^3 H-LTD4 is diluted to 2 nM in Tris buffer. The membrane suspension (20 mg/0.89 ml) contains sufficient MgCl2 to give 10 mM final concentration in the incubation. […] All additions are performed at 0° C. Immediately after the last addition, the incubation is initiated by agitating the rack of tubes on a vortex mixer and warming to 25° C. in a water bath. Tubes are vortexed at least once more during the incubation to ensure that the membranes remained suspended. Incubations are terminated after 60 minutes by filtering under reduced pressure through 25 mm Whatman GF/B filters followed by rapid washing three times with 4 ml of ice-cold Tris buffer. Filters are added to scintillation vials with 8 ml Formula 947 (New England Nuclear), left overnight, shaken, and the radioactivity counted in a scintillation counter (efficiency 40%). Nonspecific binding, defined as binding of ^3 H-LTD4 in the presence of 100 nM LTC4, is 300-500 cpm for all lots of ^3 H-LTD4. Binding to the filters in the absence of tissue is about 100 cpm, and is not affected by unlabeled LTC4. Specific binding, defined as total binding minus nonspecific binding, varied considerably from lot to lot of ^3 H-LTD4. […]

IC50 | SMILES
4.8 µM | O=C(O)c1ccccc1-c1ccccc1C(=O)Nc1ccc(CCc2ccc(Cl)c(Cl)c2)cc1 [Example 3, [1,1'-Biphenyl]-2-carboxylic acid, 2'-[[[4-[2-(3,4-dichlorophenyl)ethyl]phenyl]amino]carbonyl]-]
8.5 µM | O=C(O)c1ccccc1-c1ccccc1C(=O)Nc1cccc(CCc2ccc(Cl)c(Cl)c2)c1 [Example 4, [1,1'-Biphenyl]-2-carboxylic acid, 2'-[[[3-[2-(3,4-dichlorophenyl)ethyl]phenyl]amino]carbonyl]-]
6.5 µM | O=C(O)c1ccccc1-c1ccccc1C(=O)Nc1ccc(Cc2ccc(Cl)c(Cl)c2)cc1 [Example 9]
14.5 µM | CN(C(=O)c1ccccc1-c1ccccc1C(=O)O)c1ccc(CCc2ccc(Cl)c(Cl)c2)cc1 [Example 5, [1,1'-Biphenyl]-2-carboxylic acid, 2'-[[[4-[2-(3,4-dichlorophenyl)ethyl]phenyl]methylamino]carbonyl]-]
4.2 µM | O=C(O)c1ccccc1-c1ccccc1C(=O)Nc1ccc(CCCCc2ccc(Cl)c(Cl)c2)cc1 [Example 15, [1,1'-Biphenyl]-2-carboxylic acid, 2'-[[[4-[4-(3,4-dichlorophenyl)butyl]phenyl]amino]carbonyl]-]
1 µM | O=C(O)c1ccccc1-c1ccccc1C(=O)Nc1ccc(CCCc2ccc(Cl)c(Cl)c2)cc1 [Example 1, [1,1'-Biphenyl]-2-carboxylic acid, 2'-[[[4-[3-(3,4-dichlorophenyl)propyl]phenyl]amino]carbonyl]-]
2.3 µM | O=C(O)c1ccccc1-c1ccccc1C(=O)Nc1ccc(CCCCCc2ccccc2)cc1 [Example 21, [1,1'-Biphenyl]-2-carboxylic acid, 2'-[[[4-(5-phenylpentyl)phenyl]amino]carbonyl]-]
4.3 µM | O=C(O)c1ccccc1-c1ccccc1C(=O)Nc1ccc(CCCc2ccccc2)cc1 [Example 16, [1,1'-Biphenyl]-2-carboxylic acid, 2'-[[[4-(3-phenylpropyl]phenyl]amino]carbonyl]-]
28.7 µM | CN(C(=O)c1ccccc1-c1ccccc1C(=O)O)c1ccc(CCc2ccc(Cl)cc2)cc1 [Example 8]
6.7 µM | O=C(O)c1ccccc1-c1ccccc1C(=O)Nc1ccc(CCCCc2ccccc2)cc1 [Example 19, [1,1'-Biphenyl]-2-carboxylic acid, 2'-[[[4-(4-phenylbutyl)phenyl]amino]carbonyl]-]
88.7 µM | COc1ccc(CCc2ccc(NC(=O)c3ccccc3-c3ccccc3C(=O)O)cc2)cc1OC [Example 7, [1,1'-Biphenyl]-2-carboxylic acid, 2'-[[[4-[2-(3,4-dimethoxyphenyl)ethyl]phenyl]amino]carbonyl]-]
4.6 µM | O=C(O)c1ccccc1-c1ccccc1C(=O)Nc1ccc(OCCCc2ccccc2)cc1 [Example 2]
13.5 µM | O=C(O)c1ccccc1-c1ccccc1C(=O)Nc1ccc(CCc2ccc(Cl)cc2)cc1 [Example 11, [1,1'-Biphenyl]-2-carboxylic acid, 2'-[[4-[2-[(4-chlorophenyl)ethyl]phenyl]amino]carbonyl]-]
